# In patent US9428542B2, “Lupane triterpenoid derivatives and pharmaceutical use thereof” (priority 2012, dated 2016):
# Tests used:
# [1] = system: MT-2 cells; assay: Compounds' cytotoxicity assay in MT-2 cells (CellTiter-Glo); assay type: cell-based; parameters: unit not given here; details: toxicity in MT-2 cells, 3 days
# Procedure: 3. Method for Compounds' Cytotoxicity Assay:
# The MT-2 cells are diluted to a needed concentration. 90 μl of the MT-2 cells suspension was added into 384-well plates containing 10 μl of the tested compounds. Compounds were dissolved in DMSO and tested as 11 points 3-fold serial dilutions. After addition of cells to compound plates, plates were placed to humidified 5% CO2 37 incubator for 3 days. The Luciferase activity was measured by CellTiter-Glo® Luminescent Cell Viability Assay kit (Promega Corp., WI, USA).
# (§1) TC50 is referred to the toxicity in MT-2 cells by the compounds tested at 50% concentration; IC50 is referred to the inhibiting HIV-1IIIB replication in MT-2 cells by the compounds tested at 50% concentration; Therapeutic Index (TI)=TC50/IC50.
# [2] = system: HIV-1IIIB; assay: HIV-1 full replication assay (HIV-1IIIB-infected MT-2 cells, supernatant read out on TZM-bl cells, β-Gal); assay type: cell-based; details: Human immunodeficiency virus 1, MT2, 72 h, inhibiting HIV-1IIIB replication in MT-2 cells, 3 days; read-out: IC50 (PM)
# Procedure: The antiviral activity of the compounds of the present invention was determined in a HIV-1 full replication assay.
# In this assay, MT-2 cells that are infected with HIV-1IIIB were co-cultured with different concentration of the tested compounds for 3 days and then supernatant is transferred into new 384-well plates containing TZM-bl cells (also called JC53-bl). TZM-bl cells that could be infected by various kinds of HIV-1 strains stably express a great amount of HIV-1 receptor, co-receptor CD4 molecular, and co-receptor CXCR4 and CCR5. TZM-bl cells harbor LTR-luciferase and β-gal two report genes. The expression of luciferase and β-gal reporter directed by HIV-1 LTR can be activated by Tat protein generated after HIV infection, and the quantity of expression is proportional to the quantity of HIV-1. Compounds that interfere with virus replication in MT-2 cells, maturation of the virus, or post-entry steps in the HIV lifecycle decrease the luciferase signal or β-gal signal. In this experiment, BVM (Bevirimat, PA-457) is used as a positive control drug.
# Method for Inhibiting HIV-1 Replication Assay:
# The MT-2 cells are infected at a Multiciplicity (MOI) of 0.01 TCID50, and then the MT-2 cells suspension was diluted to a needed concentration. 90 μl of the MT-2 cells suspension from above was added into 384-well plates containing 10 μl of the tested compounds.
# Compounds were dissolved in DMSO and tested as 11 points 3-fold serial dilutions. After addition of cells to compound plates, plates were placed to humidified 5% CO2 37 incubator for 3 days. 10 μl of cells culture supernatant from the incubated plates was transferred into new black 384-well plates.
# Adjusted the TZMb1 cells concentration and 40 μl of TZMb1 cells was added into each well in the black 384-well plates. After addition of the TZMb1 cells to the black plates, black plates were placed to humidified 5% CO2 37 incubator for 24 h, then β-Gal activity was measured.
# The anti viral activity %=(measured number-lowest mean number)/(highest mean number-lowest mean number)×100. The IC50 values were calculated by Median Equation and the IC curve was generated by Graphpad Prism V 5.03.
# as §1
smiles,measurement,setting,value
CC(C)C1=C2[C@H]3CC[C@@H]4[C@@]5(C)CC[C@H](OC(=O)CC(C)(C)C(=O)O)C(C)(C)[C@@H]5CC[C@@]4(C)[C@]3(C)CC[C@@]2(c2cc(=O)n(-c3ccc(Cl)cc3)n2C)CC1 [Compound 96-1],TC50 (PM),[1],17
same,IC50,[2],33 nM
CC(C)C1=C2[C@H]3CC[C@@H]4[C@@]5(C)CC[C@H](OC(=O)CC(C)(C)C(=O)O)C(C)(C)[C@@H]5CC[C@@]4(C)[C@]3(C)CC[C@@]2(c2cc(=O)n(-c3ccc(Cl)cc3)n2CCN(C)C)CC1=O [Compound 156-1],TC50 (PM),[1],19
same,IC50,[2],≤ 0.17 nM
COc1ccc(-n2c(=O)cc([C@@]34CC[C@]5(C)[C@H](CC[C@@H]6[C@@]7(C)CC[C@H](OC(=O)CC(C)(C)C(=O)O)C(C)(C)[C@@H]7CC[C@]65C)C3=C(C(C)C)C(=O)C4)n2C)cn1 [Compound 98-2],TC50 (PM),[1],44
same,IC50,[2],3 nM
CCn1c([C@@]23CC[C@]4(C)[C@H](CC[C@@H]5[C@@]6(C)CC[C@H](OC(=O)CC(C)(C)C(=O)O)C(C)(C)[C@@H]6CC[C@]54C)C2=C(C(C)C)C(=O)C3)cc(=O)n1-c1ccc(Cl)cn1 [Compound 98-6],TC50 (PM),[1],13
same,IC50,[2],≤ 0.17 nM
CC(C)C1=C2[C@H]3CC[C@@H]4[C@@]5(C)CC[C@H](OC(=O)CC(C)(C)C(=O)O)C(C)(C)[C@@H]5CC[C@@]4(C)[C@]3(C)CC[C@@]2(Cc2nnc(-c3ccc(C(F)(F)F)cn3)o2)CC1=O [Compound 22-12],TC50 (PM),[1],31
same,IC50,[2],0.4 nM
CC(C)C1=C2[C@H]3CC[C@@H]4[C@@]5(C)CC[C@H](OC(=O)CC(C)(C)C(=O)O)C(C)(C)[C@@H]5CC[C@@]4(C)[C@]3(C)CC[C@@]2(c2cc(=O)n(Cc3ccccc3)n2C)CC1 [Compound 89-2],TC50 (PM),[1],37
same,IC50,[2],58.4 nM
CC(C)C1=C2[C@H]3CC[C@@H]4[C@@]5(C)CC[C@H](OC(=O)CC(C)(C)C(=O)O)C(C)(C)[C@@H]5CC[C@@]4(C)[C@]3(C)CC[C@@]2([C@@H](O)c2nnc(-c3ncc(Cl)cn3)o2)CC1=O [Compound 127-5],TC50 (PM),[1],38
same,IC50,[2],1 nM
CC(C)C1=C2[C@H]3CC[C@@H]4[C@@]5(C)CC[C@H](OC(=O)CC(C)(C)C(=O)O)C(C)(C)[C@@H]5CC[C@@]4(C)[C@]3(C)CC[C@@]2(Cc2nnc(-c3ccccc3)o2)CC1=O [Compound 22-2],TC50 (PM),[1],28
same,IC50,[2],1.7 nM
CC(C)C1=C2[C@H]3CC[C@@H]4[C@@]5(C)CC[C@H](OC(=O)CC(C)(C)C(=O)O)C(C)(C)[C@@H]5CC[C@@]4(C)[C@]3(C)CC[C@@]2(c2cc(=O)n(CC(N)=O)n2C)CC1=O [Compound 91-6],TC50 (PM),[1],48
same,IC50,[2],2 nM
CC(C)C1=C2[C@H]3CC[C@@H]4[C@@]5(C)CC[C@H](OC(=O)CC(C)(C)C(=O)O)C(C)(C)[C@@H]5CC[C@@]4(C)[C@]3(C)CC[C@@]2(c2cc(=O)n(-c3ccc(C#N)cc3)n2C)CC1=O [Compound 98-4],TC50 (PM),[1],36
same,IC50,[2],0.81 nM
CC(C)C1=C2[C@H]3CC[C@@H]4[C@@]5(C)CC[C@H](OC(=O)CC(C)(C)C(=O)O)C(C)(C)[C@@H]5CC[C@@]4(C)[C@]3(C)CC[C@@]2(c2ncc(-c3ccc(Cl)cc3)o2)CC1=O [Compound 65],TC50 (PM),[1],17.68
same,IC50,[2],58 nM
CC(C)C1=C2[C@H]3CC[C@@H]4[C@@]5(C)CC[C@H](OC(=O)CC(C)(C)C(=O)O)C(C)(C)[C@@H]5CC[C@@]4(C)[C@]3(C)CC[C@@]2(c2cc(=O)n(Cc3ccc(Cl)cn3)n2C)CC1=O [Compound 91-9],TC50 (PM),[1],26
same,IC50,[2],≤ 0.17 nM
CNC(=O)Cn1c(=O)cc([C@@]23CC[C@]4(C)[C@H](CC[C@@H]5[C@@]6(C)CC[C@H](OC(=O)CC(C)(C)C(=O)O)C(C)(C)[C@@H]6CC[C@]54C)C2=C(C(C)C)C(=O)C3)n1C [Compound 91-7],TC50 (PM),[1],68
same,IC50,[2],0.7 nM
CC(C)C1=C2[C@H]3CC[C@@H]4[C@@]5(C)CC[C@H](OC(=O)CC(C)(C)C(=O)O)C(C)(C)[C@@H]5CC[C@@]4(C)[C@]3(C)CC[C@@]2(c2nnc(-c3ncc(Cl)cn3)o2)CC1=O [Compound 27-14],TC50 (PM),[1],46
same,IC50,[2],4.9 nM
COc1ccc(-c2nnc(C[C@@]34CC[C@]5(C)[C@H](CC[C@@H]6[C@@]7(C)CC[C@H](OC(=O)CC(C)(C)C(=O)O)C(C)(C)[C@@H]7CC[C@]65C)C3=C(C(C)C)C(=O)C4)o2)nc1 [Compound 22-17],TC50 (PM),[1],200
same,IC50,[2],2.8 nM
CC(C)C1=C2[C@H]3CC[C@@H]4[C@@]5(C)CC[C@H](OC(=O)CC(C)(C)C(=O)O)C(C)(C)[C@@H]5CC[C@@]4(C)[C@]3(C)CC[C@@]2(Nc2nnc(-c3ncc(Cl)cn3)o2)CC1=O [Compound 141-3],TC50 (PM),[1],22
same,IC50,[2],1.7 nM
CC(C)C1=C2[C@H]3CC[C@@H]4[C@@]5(C)CC[C@H](OC(=O)CC(C)(C)C(=O)O)C(C)(C)[C@@H]5CC[C@@]4(C)[C@]3(C)CC[C@@]2([C@H](O)c2nnc(-c3ccc(Cl)cc3)o2)CC1=O [Compound 127-2],TC50 (PM),[1],45
same,IC50,[2],25 nM
CC(C)C1=C2[C@H]3CC[C@@H]4[C@@]5(C)CC[C@H](OC(=O)CC(C)(C)C(=O)O)C(C)(C)[C@@H]5CC[C@@]4(C)[C@]3(C)CC[C@@]2(c2nnc(-c3ccc(Cl)cc3)s2)CC1=O [Compound 102],TC50 (PM),[1],9.93
same,IC50,[2],175 nM
CC(C)C1=C2[C@H]3CC[C@@H]4[C@@]5(C)CC[C@H](OC(=O)CC(C)(C)C(=O)O)C(C)(C)[C@@H]5CC[C@@]4(C)[C@]3(C)CC[C@@]2(c2nnc(Cc3ccc(Cl)cc3)o2)CC1=O [Compound 38],TC50 (PM),[1],100
same,IC50,[2],1.6 nM
CC(C)C1=C2[C@H]3CC[C@@H]4[C@@]5(C)CC[C@H](OC(=O)CC(C)(C)C(=O)O)C(C)(C)[C@@H]5CC[C@@]4(C)[C@]3(C)CC[C@@]2(Cc2nnc(-c3ccc(Cl)cc3)o2)CC1=O [Compound 22-1],TC50 (PM),[1],46
same,IC50,[2],3.3 nM
CC(C)C1=C2[C@H]3CC[C@@H]4[C@@]5(C)CC[C@H](OC(=O)CC(C)(C)C(=O)O)C(C)(C)[C@@H]5CC[C@@]4(C)[C@]3(C)CC[C@@]2([C@H](O)c2nnc(-c3ccc(Cl)cn3)o2)CC1=O [Compound 127-4],TC50 (PM),[1],200
same,IC50,[2],38 nM
CCn1c([C@@]23CC[C@]4(C)[C@H](CC[C@@H]5[C@@]6(C)CC[C@H](OC(=O)CC(C)(C)C(=O)O)C(C)(C)[C@@H]6CC[C@]54C)C2=C(C(C)C)C(=O)C3)cc(=O)n1-c1ccc(Cl)cc1 [Compound 98-5],TC50 (PM),[1],13
same,IC50,[2],≤ 0.17 nM
CC(C)C1=C2[C@H]3CC[C@@H]4[C@@]5(C)CC[C@H](OC(=O)CC(C)(C)C(=O)O)C(C)(C)[C@@H]5CC[C@@]4(C)[C@]3(C)CC[C@@]2(Cc2nnc(-c3cccnc3)o2)CC1=O [Compound 22-9],TC50 (PM),[1],33
same,IC50,[2],4.3 nM
CC(C)C1=C2[C@H]3CC[C@@H]4[C@@]5(C)CC[C@H](OC(=O)CC(C)(C)C(=O)O)C(C)(C)[C@@H]5CC[C@@]4(C)[C@]3(C)CC[C@@]2(c2nnc(-c3ccc(Cl)cn3)o2)CC1=O [Compound 27-3],TC50 (PM),[1],36
same,IC50,[2],1.5 nM
CC(C)C1=C2[C@H]3CC[C@@H]4[C@@]5(C)CC[C@H](OC(=O)CC(C)(C)C(=O)O)C(C)(C)[C@@H]5CC[C@@]4(C)[C@]3(C)CC[C@@]2(Cc2nnc(-c3ccc(Cl)cn3)o2)CC1=O [Compound 22-3],TC50 (PM),[1],36
same,IC50,[2],1.6 nM
CC(C)C1=C2[C@H]3CC[C@@H]4[C@@]5(C)CC[C@H](OC(=O)CC(C)(C)C(=O)O)C(C)(C)[C@@H]5CC[C@@]4(C)[C@]3(C)CC[C@@]2(Cc2nnc(-c3ncc(Cl)cn3)o2)CC1=O [Compound 22-16],TC50 (PM),[1],39
same,IC50,[2],0.48 nM
CC(C)C1=C2[C@H]3CC[C@@H]4[C@@]5(C)CC[C@H](OC(=O)CC(C)(C)C(=O)O)C(C)(C)[C@@H]5CC[C@@]4(C)[C@]3(C)CC[C@@]2(c2nnc(-c3ccncc3)o2)CC1=O [Compound 27-13],TC50 (PM),[1],200
same,IC50,[2],17 nM
